Our source for the mice presenting lesions values is patent publication US20130136778A1, “PTEROSTILBENE (PTER) FOR USE IN THE PREVENTION AND/OR TREATMENT OF SKIN DISEASES, DAMAGES OR INJURIES” (GREEN MOLECULAR, S.L., priority 2009, published 2013).

This assay has as its system SKH-1 mice. Briefly: Photocarcinogenesis: chronic exposure to UV-B, precancerous lesions/tumors per mouse. In kind it is in vivo. As to conditions: after 30 weeks of chronic exposure to UV-B. The source says:
The role of UV-B radiation in tumor formation is well known. The continuous exposure to UV-B promotes the formation of oxidative/nitrosative stress, along with alterations in DNA, proteins, etc. that activates various transcription factors (among them NF-κB and AP-1), increase in the telomerase activity, stress, etc. which in turn induces carcinogenesis.
The mice chosen for this study were SKH-1.
The protocol used was the standardized protocol, whereby several mice were irradiated three times per week with a dose of 180 mJ/cm^2 with exposures for 24 weeks; however, […], in order to obtain more evidence of the photoprotector effect on the different treatments used.
The dose of exposure was 180 mJ/cm2, since it had been determined in previous trials that this was the minimal erythemic dose (MED) for this type of rodent.
A range of different commercial photoprotectors were included in this study: • Vichy: Capital Soleil SPF-50+(Vichy Laboratoires). • Isdin: Photoprotector Isdin Extrem (SPF-40 (Isdin SA) • Heliocare: Heliocare gel Protection Ultra 90 (Difa Cooper S.P.A.)
Both the reference compounds and the ones subject of this study were applied to the back of the mice for 20 minutes prior to their exposure to UV-B. […]
During the photocarcinogenesis process, the presence of different tumors was followed and quantified throughout the process. […]

As to `COc1cc(/C=C/c2ccc(O)cc2)cc(OC)c1` [PTER, 3,5-dimethoxy-4′-hydroxy-trans-resveratrol], the mice presenting lesions was determined as 10%.
